# Experimental data reported in patent US20230081679A1, “SURFACTANT VESICLES FOR VACCINE FORMULATION, TARGETED DRUG DELIVERY, AND TRANSFECTION” (University of Maryland, College Park, priority 2021, published 2023).
# Values joined by “and” are separate entries in the source; they are usually repeats but may differ in a detail not shown here. Equal values may be shown once. Read-outs that look alike come from different tables or passages of the source. {BHQ2} = Black Hole Quencher 2; {FAM} = fluorescein
# Tests used:
# [1] = Encapsulation in catanionic SVs (gel filtration, then NMR or ICP-AES); assay type: physicochemical; settings: empty SVs incubated in 4 mM D-maltose solution for three weeks
# [2] = as above; assay type: physicochemical
# Experimental: Vesicles were formed in the presence of several different sugars, purified by gel filtration, and the encapsulated sugar concentration measured by NMR (Table 3).
# Table 6 summarizes the EE and drug concentration achieved with each of the chemotherapeutic agents under the standard SDBS-rich SVs formulation method.
# The gel was flushed with two column-volumes of PBS 1×. Next, 1.0 mL of crude vesicle suspension was loaded onto the column and gravity fed into the gel. 2.0 mL of PBS 1× eluent was then added to the column and the fractions discarded. 1.5 mL of PBS 1× was then added to the column and the fractions collected to yield purified opaque light blue vesicles. The column was cleaned with 2.0 mL of 0.1% Triton X-100 in water followed by two column volumes of PBS 1×.
# [3] = Vesicle radius and PDI by DLS
# Experimental: To measure the average size of the vesicles, 100 μL of the solution was taken and diluted to 1 mL with water and analyzed using dynamic light scattering (DLS).
# [4] = for Second Order Rate Constant k’: 60:40 w/w SDBS:CTAT, 1% w/w total surfactant
# Experimental: To assess the rate of encapsulated substrate release, dialysis was initially considered. […] The assay was to remove aliquots from SVs-encapsulated formulations at time intervals and re-purify the aliquot by size-exclusion chromatography (SEC). Vesicle fractions elute in the initial fractions while release carbohydrate is retained on the column and elutes in the later fractions. The quantity of carbohydrate released was determined by ^1H-NMR (FIG. 28).
# Using the SEC method, the initial rate of glucose release was analyzed for vesicle encapsulated glucose solutions at varying concentrations. […] Therefore, a simple model with first-order release kinetics across the vesicle membrane (Eq. 1) was used, from which the rate law (Eq. 2) can be derived, where [Sugar]in and [Sugar]out are the sugar concentrations inside and outside the vesicle, respectively.
# The release for each vesicle-encapsulated sugar preparation was monitored for at least two half-lives (monosaccharides) and at least one half-life (disaccharides and maltotriose). The release profile for each substrate was then fit to Eq. 3 by a least squares method, and the first order rate constant k1 was calculated. The reported uncertainties represent the standard deviation in the measured k1 of three separate batches of vesicle-encapsulated sugar.
# The t1/2 was calculated from each k1, and the permeability coefficient (P) was calculated using k1 and the vesicle size (from DLS experiments) according to: […]
# [5] = Drug pKa and solubility in buffer; assay type: physicochemical
# [6] = saline at 37° C.; cited from earlier work
# [7] = Conversion of carboplatin in PBS 1×; assay type: physicochemical; settings: 40 mM in PBS 1×, 48 h, room temperature
# [8] = system: A549; experiment: Empty vesicles vs. DOX-vesicles on cell lines; assay type: cell-based; settings: Homo sapiens; A549 non-small cell lung cancer
# Text: (§1) Empty vesicles vs. DOX-vesicles. 3 cell lines: MDA-MB-231: human breast cancer; MCF-7: human breast cancer; A549: non-small cell lung cancer.
# [9] = system: MDA-MB-231; experiment: Empty vesicles vs. DOX-vesicles on cell lines; assay type: cell-based; settings: MDA-MB-231 human breast cancer
# Text: as §1
# [10] = cited from earlier work
# [11] = system: DNase I; experiment: DNase I Protection Assay; settings: 25° C. or 37° C., intact vesicles
# Experimental: FIG. 10. […] Vesicle-incorporated fluorescently-quenched 20 bp DNA duplexes were subjected to DNase I cleavage at 25° C. (A) or 37° C. (B) before (intact) and after (broken) freeze/thaw cycles to promote vesicle rupturing. […] Variation in overall fluorescent intensity in the ruptured samples reflect the variability in vesicle rupture and reformation during the freeze/thaw process.
# DNase I Protection Assay: Intact DNA duplex loaded vesicles were added to reaction buffer containing 2.5 mM magnesium chloride, 0.5 mM calcium chloride, and 1× PBS. DNase I (Thermo Fisher Scientific, Waltham, Mass.) was added to a final concentration of 0.005 U/μL and the reaction was monitored by fluorescence (excitation at 494 nm, emission 521 nm) collected on SpectraMax M5 Microplate Reader (Molecular Devices, San Jose, Calif.) over 3 h at 25° C. or 37° C. Broken vesicles were prepared by 3 freeze thaw cycles of 10 min at −80° C. and 2 min at RT. Following the freeze thaw procedure, the samples equilibrated at RT for 30 min and were used in the assay as described above.
# [12] = prepared in 500 mM sugar, PBS 1×
# [13] = sugar vesicles, 500 mM sugar, PBS 1×, after 24 h
# [14] = chemotherapeutic drugs in SDBS-rich SVs, PBS 1×
# [15] = 500 mM sugar, deionized water instead of PBS 1×
# [16] = sugar vesicles, deionized water instead of PBS 1×, after 24 h
compound,measurement,setting,value
OC[C@H]1O[C@H](O[C@H]2[C@H](O)[C@@H](O)[C@H](O)O[C@@H]2CO)[C@H](O)[C@@H](O)[C@@H]1O [D-maltose],EE,[1],5%
same,maltose trapped by vesicles,[1],0.2 mM
same,EE (%),[2]; [12],1.2%
same,"[Sugar], mM (in purified vesicles)",[2]; [12],4.1 ± 0.3 mM
same,Vesicle PDI,[3]; [13],0.13
same,Vesicle Radius (nm),[3]; [13],80 nm
same,Second Order Rate Constant k’,"[4]; 25° C., PBS 1×",0.000333 ± 8.3e-05 M⁻¹ s⁻¹
same,Second Order Rate Constant k’,"[4]; 25° C., PBS 1×, listed as Maltose",0.000333 ± 8.3e-05 M⁻¹ s⁻¹
"N.N.O=C([O-])C1(C(=O)[O-])CCC1.[Pt+2] [Carboplatin, carboplatin]",solubility (concentration in buffer),[5],40 mM
same,EE (%),[2]; [14],1.9%
same,"[Drug], mM (in purified vesicles)",[2]; [14],0.5 ± 0.1 mM
same,kobs of ligand exchange,[6],7.7e-07 s⁻¹
same,t1/2 of ligand exchange,[6],≈ 10 days
same,Vesicle PDI,[3]; drug-loaded catanionic SVs,0.19
same,Vesicle Radius (nm),[3]; drug-loaded catanionic SVs,74 nm
same,converted to cisplatin,[7],2%
same,remained unreacted,[7],93%
same,leaked out of the vesicles,[4]; at the 48 h mark,over 50%
same,First Order Rate Constant k,"[4]; drug release from catanionic SVs, PBS 1×",0.039 ± 0.004 h⁻¹
same,fold slower release than cisplatin,[4]; release from SVs,20 fold
same,fold slower release than glucose,[4]; release from SVs,3 fold
"COc1cccc2c1C(=O)c1c(O)c3c(c(O)c1C2=O)C[C@@](O)(C(=O)CO)C[C@@H]3O[C@H]1C[C@H](N)[C@H](O)[C@H](C)O1 [Doxorubicin, doxorubicin]",IC50,[8],0.02 µg/mL
same,IC50,[9],0.06 µg/mL
same,EE (%),[2]; [14],61%
same,"[Drug], mM (in purified vesicles)",[2]; [14],0.15 ± 0.02 mM
same,EE (%),"[2]; chemotherapeutic drugs in SDBS-rich SVs, PBS 1×, listed as doxorubicin",60% and 61%
same,pKa,[10],8.4
same,Vesicle PDI,[3]; drug-loaded catanionic SVs,0.25
same,Vesicle Radius (nm),[3]; drug-loaded catanionic SVs,91 nm
same,release from vesicles after 11 days,"[4]; within detection limits, after 11 days",no release
"20 bp DNA duplexes: fluorescently-quenched 20 bp DNA duplexes (SEQ ID NO:3 and 4), vesicle-incorporated (chain 1 ACCCTACGTATCGGTCAGTC; chain 2 GACTGACCGATACGTAGGGT; chain 1: DNA, 3' {FAM}, backbone and methylation of C not given here; chain 2: DNA, 5' {BHQ2}, backbone and methylation of C not given here)","protection from DNase I cleavage, vesicle-incorporated",[11],protected from nuclease digestion
O=C[C@H](O)[C@@H](O)[C@H](O)[C@H](O)CO [D-glucose],EE (%),[2]; [15],0.67%
same,"[Sugar], mM (in purified vesicles)",[2]; [15],2 ± 1 mM
same,EE (%),[2]; [12],1.1%
same,"[Sugar], mM (in purified vesicles)",[2]; [12],3.7 ± 0.8 mM
same,EE,[2]; vesicles prepared in 0.1 M glucose,1.9%
same,Vesicle PDI,[3]; [13],0.17
same,Vesicle Radius (nm),[3]; [13],75 nm
same,Vesicle PDI,[3]; [16],0.40
same,Vesicle Radius (nm),[3]; [16],178 nm
same,First Order Rate Constant k,"[4]; 25° C., PBS 1× pH 7.4, 60:40 w/w SDBS rich vesicles, 500 mM sugar",0.12 ± 0.03 h⁻¹
same,First Order Rate Constant k,"[4]; 25° C., in water instead of PBS 1×, 500 mM sugar",0.12 ± 0.05 h⁻¹
same,slope of ln starting concentration vs ln initial release rate,"[4]; vesicles prepared in 0.1, 0.2 and 0.5 M glucose",1.1±0.2
